Measured values reported in patent EP1900728A1 (Genecare Research Institute Co., Ltd, priority 2005, dated 2006).
Read-outs that look alike come from different tables or passages of the source.

How the values were obtained:
[1] = system: ICAM-1 expression in HT-29 cells; experiment: Measurement of ICAM-1 expressing activity (TNFα-induced ICAM-1 expression, cell ELISA); type: cell-based; settings: Homo sapiens, Table 6, cell activity inhibition test by method (3), read-out: EVALUATION (IC50 class, inhibition of cell activity)
In short: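 Cell ELISA read-out (anti-ICAM-1, peroxidase secondary, TMBZ, A450) after methanol fixation. Before that, HT-29 cells had 30 min compound exposure at 37°C (final DMSO 0.5%) followed by 4 h with 30 ng/mL human TNFα.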

[2] = target: T1, IκBα ubiquitinating enzyme (SCF complex: ROC1, Cullin1, Skp1, His-TrCP1; with E1, UbcH5b) (Homo sapiens, UniProt P62877+P63208+Q13616+Q9Y297); experiment: Measurement of ubiquitinating enzyme activity (IκBα ubiquitination, time-resolved fluorescence with Eu(K)-labeled ubiquitin and XL665-labeled anti-GST antibody); type: biochemical
T1 construct: His (polyhistidine); made in house; host or cells: insect cells (baculovirus) for the SCF complex and His-E1; E. coli for His-UBCH5b
T1 sequence (Q9Y297 whole entry): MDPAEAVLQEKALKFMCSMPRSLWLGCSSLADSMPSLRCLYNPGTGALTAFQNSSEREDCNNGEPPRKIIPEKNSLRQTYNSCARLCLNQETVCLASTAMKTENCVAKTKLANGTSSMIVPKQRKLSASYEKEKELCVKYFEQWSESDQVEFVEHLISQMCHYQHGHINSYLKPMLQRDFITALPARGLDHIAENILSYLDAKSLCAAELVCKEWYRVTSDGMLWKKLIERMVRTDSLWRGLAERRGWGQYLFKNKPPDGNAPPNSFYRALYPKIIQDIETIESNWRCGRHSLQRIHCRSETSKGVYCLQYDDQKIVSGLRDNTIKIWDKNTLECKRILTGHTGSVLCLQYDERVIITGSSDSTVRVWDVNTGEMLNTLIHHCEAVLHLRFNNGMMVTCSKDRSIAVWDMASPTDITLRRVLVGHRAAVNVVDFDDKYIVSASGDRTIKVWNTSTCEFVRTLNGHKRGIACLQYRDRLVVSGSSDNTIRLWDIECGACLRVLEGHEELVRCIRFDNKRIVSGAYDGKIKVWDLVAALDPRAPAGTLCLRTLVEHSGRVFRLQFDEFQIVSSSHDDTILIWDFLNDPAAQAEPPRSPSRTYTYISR
T1 sequence (Q13616 whole entry): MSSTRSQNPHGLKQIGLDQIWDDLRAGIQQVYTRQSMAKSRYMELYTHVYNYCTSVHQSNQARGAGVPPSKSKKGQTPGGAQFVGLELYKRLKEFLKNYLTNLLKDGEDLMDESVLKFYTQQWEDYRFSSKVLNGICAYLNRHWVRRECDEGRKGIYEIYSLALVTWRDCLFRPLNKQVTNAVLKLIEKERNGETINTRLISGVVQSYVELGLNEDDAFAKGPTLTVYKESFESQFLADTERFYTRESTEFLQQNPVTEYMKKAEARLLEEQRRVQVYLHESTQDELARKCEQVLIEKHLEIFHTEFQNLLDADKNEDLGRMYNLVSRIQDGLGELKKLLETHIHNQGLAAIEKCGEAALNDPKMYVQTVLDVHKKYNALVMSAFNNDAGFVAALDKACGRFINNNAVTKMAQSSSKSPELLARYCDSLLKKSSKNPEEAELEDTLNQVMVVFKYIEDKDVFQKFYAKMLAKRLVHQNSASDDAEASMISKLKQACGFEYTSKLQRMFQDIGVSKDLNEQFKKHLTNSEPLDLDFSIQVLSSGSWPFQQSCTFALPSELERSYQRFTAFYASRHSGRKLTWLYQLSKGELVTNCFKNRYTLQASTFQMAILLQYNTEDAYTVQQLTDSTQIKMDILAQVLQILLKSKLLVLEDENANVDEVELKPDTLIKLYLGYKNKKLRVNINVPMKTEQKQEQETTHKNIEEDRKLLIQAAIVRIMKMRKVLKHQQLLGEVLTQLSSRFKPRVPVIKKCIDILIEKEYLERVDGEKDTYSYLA
T1 sequence (P63208 whole entry): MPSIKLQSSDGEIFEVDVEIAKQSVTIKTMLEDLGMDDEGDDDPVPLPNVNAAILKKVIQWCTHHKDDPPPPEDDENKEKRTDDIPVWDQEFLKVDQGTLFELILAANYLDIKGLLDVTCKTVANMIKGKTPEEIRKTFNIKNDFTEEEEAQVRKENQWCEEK
T1 sequence (P62877 whole entry): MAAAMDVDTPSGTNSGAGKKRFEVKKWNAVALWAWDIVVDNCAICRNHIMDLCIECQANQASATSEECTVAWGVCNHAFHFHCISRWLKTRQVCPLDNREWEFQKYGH
In short: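 Human SCF complex with E1 and UbcH5b ubiquitinated GST-IκBα pre-phosphorylated by IKKβ (2 mM ATP, pH 7.4, 1 h, RT), with Eu(K)-ubiquitin, 30 min RT. Stopped with EDTA, XL665 anti-GST added for 2 h; 665/620 nm TR-FRET ratio. % inhibition versus no-compound control and no-SCF blank gave IC50.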

[3] = enzyme activity inhibition test, method (1), Table 5, read-out: EVALUATION

| Compound | IC50 [1] [µM] | IC50 [2, 3] [µM] | IC50 [2] [µM] |
| --- | --- | --- | --- |
| COCCC1=NN(c2ccc(C(=O)O)cc2)C(=O)/C1=C\c1ccc(-c2cnn(C)c2)o1 [Compound 512] | < 40 | 10 to 20 | – |
| CC1=NN(c2ccc(C(=O)O)cc2)C(=O)/C1=C\c1ccc2c(ccn2C(=O)c2ccccc2)c1 [Compound 528] | < 40 | < 10 | – |
| CC1=NN(c2cccc(C(=O)O)c2)C(=O)/C1=C\c1ccc2c(ccn2C(=O)C2CC2)c1 [Compound 530] | < 40 | < 10 | – |
| CC1=NN(c2cccc(C(=O)O)c2)C(=O)/C1=C\c1ccc2c(ccn2C(=O)c2ccco2)c1 [Compound 531] | < 40 | < 10 | – |
| CC1=NN(c2cccc(C(=O)O)c2)C(=O)/C1=C\c1ccc2c(ccn2C(=O)c2cccn2C)c1 [Compound 532] | < 40 | < 10 | – |
| CC1=NN(c2ccc(C(=O)O)cc2)C(=O)C1=Cc1ccc(OCC(=O)N(C)C)cc1 [Compound 535] | 10 to 20 | – | 10 to 20 |
| CC1=NN(c2ccc(C(=O)O)cc2)C(=O)/C1=C\c1ccc(OCC(=O)Nc2ccccc2)cc1 [Compound 537] | < 40 | < 10 | – |
| CC1=NN(c2ccc(C(=O)O)cc2)C(=O)/C1=C\c1ccc(OCC(=O)N2CCOCC2)cc1 [Compound 538] | < 40 | < 10 | – |
| CCOC(=O)COc1ccc(/C=C2\C(=O)N(c3ccc(C(=O)O)cc3)N=C2C)cc1 [Compound 540] | < 40 | < 10 | – |
| CC1=NN(c2ccc(C(=O)O)cc2)C(=O)C1=Cc1ccc(OCc2ccc([N+](=O)[O-])cc2)cc1 [Compound 541] | < 10 | – | < 10 |
| CC1=NN(c2ccc(C(=O)O)cc2)C(=O)/C1=C\c1cccc(O)c1 [Compound 542] | < 40 | < 10 | – |
| CC1=NN(c2ccc(C(=O)O)cc2)C(=O)C1=Cc1ccc(OCCCN(C)C)cc1 [Compound 543] | < 10 | – | < 10 |
| CC1=NN(c2ccc(C(=O)O)cc2)C(=O)/C1=C\c1ccc(NC(=O)c2ccccc2)cc1 [Compound 544] | < 40 | < 10 | – |

More lines, main results first:

| IC50 [1] [µM] | IC50 [2, 3] [µM] | Compound | IC50 [2] [µM] |
| --- | --- | --- | --- |
| < 10 | 10 to 20 | COc1cccc(-c2ccc(/C=C3\C(=O)N(c4cccc(C(=O)O)c4)N=C3C)o2)c1 [Compound 503] | – |
| 10 to 20 | 10 to 20 | CC(=O)c1ccc(-c2ccc(/C=C3\C(=O)N(c4cccc(C(=O)O)c4)N=C3C)o2)cc1 [Compound 504] | – |
| < 40 | 10 to 20 | COCCC1=NN(c2cccc(C(=O)O)c2)C(=O)/C1=C\c1ccc(-c2cnn(C)c2)o1 [Compound 505] | – |
| 10 to 20 | 10 to 20 | Cn1cc(-c2ccc(/C=C3\C(=O)N(c4ccc(C(=O)O)cc4)N=C3Cc3ccccc3)o2)cn1 [Compound 518] | – |
| < 10 | 10 to 20 | O=C(O)c1cccc(N2N=C(Cc3ccccc3)/C(=C/c3ccc(-c4ccccc4F)o3)C2=O)c1 [Compound 519] | – |
| < 10 | < 10 | COCCC1=NN(c2ccc(C(=O)O)cc2)C(=O)/C1=C\c1ccc(-c2ccccc2F)o1 [Compound 522] | – |
| < 10 | < 10 | CCOC(=O)c1ccccc1-c1ccc(/C=C2\C(=O)N(c3ccc(C(=O)O)cc3)N=C2C)o1 [Compound 527] | – |
| 10 to 20 | < 10 | CC1=NN(c2ccc(C(=O)O)cc2)C(=O)/C1=C\c1ccc(OCC(=O)N2CCCCC2)cc1 [Compound 533] | – |
| 10 to 20 | < 10 | CC1=NN(c2ccc(C(=O)O)cc2)C(=O)/C1=C\c1ccc(OCC(N)=O)cc1 [Compound 536] | – |
| < 10 | < 10 | CC1=NN(c2ccc(C(=O)O)cc2)C(=O)/C1=C\c1ccc(Oc2ccccc2)cc1 [Compound 539] | – |
